Key:
[1] = test system: Julia Light hens; experiment: Chicken egg color enhancement test 1: yolk color fan value, low- and standard-corn-content feed; assay type: in vivo, chickens; settings: for change of color fan value, low-corn-content vs standard-corn-content feed / CF value: colorant added at 4 ppm
Experimental: A preparation of dry cells of a Paracoccus bacterium (with an astaxanthin content of 2%) and a paprika colorant preparation (with a t-capsanthin content of 0.25%) were used as coloring agents for evaluation. Cells of a nitrosoguanidine mutant strain obtained from the Paracoccus carotinifaciens E-396 strain (FERM BP-4283) were used as carotenoid-producing Paracoccus bacterial cells for a preparation of dry cells of a Paracoccus bacterium. The preparation was cultured in a seed flask medium and then cultured in a main culture medium at 28° C. under aerobic conditions until the bacterial cell concentration reached the maximum level. Next, the cultured cells were collected and recovered using a centrifuge. The recovered Paracoccus bacterial cells were dried using a double drum dryer at a drum rotation speed of 3.5 rpm and a drum temperature of 140° C. The average particle size (volume particle size D50) of the obtained power was approximately […]. The powder was further finely powderized (pulverized) using a jet mill (Seishin Enterprise Co., Ltd.) so that the average particle size (D50) became 9 μm. The obtained product was used as a preparation of dry cells of a Paracoccus bacterium. As a paprika colorant preparation, Color Up (a product with a total xanthophyll concentration of 5 g/kg, Kohkin Chemical Co., Ltd.) was used. The above preparations were added to a low-corn-content feed and a standard-corn-content feed listed in Table 1, thereby preparing formula feeds each containing astaxanthin or t-capsanthin at a final concentration of 1, 2, 4, or 8 ppm. Table 2 lists measured concentrations of astaxanthin and t-capsanthin contained in the actually produced formula feeds. Julia Light hens were used for tests. Ten chickens were provided for each test plot. The acclimatization period was set to 2 weeks. Eggs collected in Week 2, during which the color fan value became stabilized, or later, were evaluated. Eggs were collected from each test plot. The color fan values of 10 chicken eggs were measured using Egg Multitester EMT-7300 (JA Z-Tamago Co., Ltd.) for each test plot. The yolk carotenoid concentration was determined for 3 eggs for each test plot. FIGS. 1 and 2 show the relationship between the concentrations of astaxanthin and t-capsanthin in both feeds and the yolk color fan values of the obtained eggs. Based on the results of FIGS. 1 and 2, the concentrations of astaxanthin and t-capsanthin to be added to the low-corn-content feed in order to achieve a desired color fan value of 10 to 15 were calculated (Table 3). For example, in order to achieve a color fan value of 13, astaxanthin may be added to the low-corn-content feed so as to result in a final concentration of 2.2 ppm. Meanwhile, t-capsanthin needs to be added so as to result in a final concentration of 4.3 ppm.

[2] = test system: chickens; experiment: Chicken egg color enhancement test 2: yolk color fan value, feeds with corn contents of 30% to 50%; assay type: in vivo; settings: for color fan value compared with t-capsanthin: corn contents of 30% and 50%
Experimental: The effects of the present invention were confirmed using feeds with corn contents of 30% to 50% in the same manner as in Example 1. Formula feeds were prepared by adding astaxanthin or t-capsanthin to feeds with the compositions listed in Table 5 so as to result in a final concentration of 1 to 16 ppm. In this Example, the feeds were the same except the corn content and the content of brown rice, which is added depending on a decrease in the corn content, and corn-derived corn gluten meal was not mixed therein. FIGS. 8a and 8b show the relationship between the astaxanthin and t-capsanthin concentrations in the feeds with corn contents of 30% and 50% and the yolk color fan values for the obtained eggs. Based on the results of FIGS. 8a and 8b, the concentrations of astaxanthin and t-capsanthin to be added to a feed in order to achieve a desired color fan value of 10 to 15 were calculated for feeds with corn contents of 30% and 50% (Table 6).

[3] = test system: chickens; experiment: Yolk color measurement using colorimeter 2 (eggs of Example 8); assay type: in vivo; settings: 2 ppm or 4 ppm; corn contents of 0% to 30%
Experimental: The yolk color of eggs obtained in Example 8 was measured using a colorimeter (CM-700d, Konica Minolta Inc.). FIGS. 14a to 14c show the measurement results of the L*, a*, and b* values, respectively.

[4] = test system: Julia Light hens; experiment: Yolk carotenoid concentration by HPLC, eggs of Example 1; assay type: in vivo, chickens; settings: colorant added at 1 to 8 ppm
Experimental: Eggs were collected from each test plot. The color fan values of 10 chicken eggs were measured using Egg Multitester EMT-7300 (JA Z-Tamago Co., Ltd.) for each test plot. The yolk carotenoid concentration was determined for 3 eggs for each test plot.
Carotenoid quantities in the yolk and each feed were determined via high performance liquid chromatography (HPLC) as described below.
Two columns (Inertsil SIL-100A, 5 μm (ϕ 4.6×250 mm), GL Sciences) were connected in series for use. Elution was carried out with the introduction of an n-hexane/tetrahydrofuran/methanol liquid mixture (40:20:1) as a mobile phase at a constant temperature (around room temperature) and a flow rate of 1.0 mL per minute. Upon determination, samples were each dissolved in tetrahydrofuran and appropriately diluted with the mobile phase such that injection volume was adjusted to 20 μL. The detection for column eluate was carried out at a wavelength of 470 nm.
The yolk carotenoid concentration of eggs obtained in Example 1 was determined by the method described in Example 1 for three eggs for each test plot.
The standard-corn-content feed and the low-corn-content feed were compared in terms of the colorant concentration in the yolk when the coloring agents used in Example 1 were added to each feed at concentrations of 1 to 8 ppm.

[5] = test system: chickens; experiment: Chicken egg color enhancement test 3: yolk color fan value, feeds with corn contents of 0% to 30%; assay type: in vivo; settings: coloring agent 2 ppm or 4 ppm
Experimental: The effects of the present invention were confirmed using feeds with corn contents of 0% to 30% in the same manner as in Example 1.
Formula feeds were prepared by adding astaxanthin or t-capsanthin to feeds with the compositions listed in Table 7 so as to result in a final concentration of 2 ppm or 4 ppm. In this Example, the feeds were the same except the corn content and the content of brown rice, which is added depending on a decrease in the corn content, and corn-derived corn gluten meal was not mixed therein.

[6] = test system: chickens; experiment: Yolk carotenoid content and composition 2 (eggs of Examples 5 and 6); settings: corn contents of 30% to 50%; 1 to 16 ppm; fed 2 to 4 weeks
[7] = cited from earlier work
[8] = test system: chickens; experiment: Yolk color measurement using colorimeter 1 (eggs of Example 5); assay type: in vivo; settings: coloring agent 8 ppm or less; corn content 30% to 50%
Experimental: The yolk color was measured using a colorimeter (CM-700d, Konica Minolta Inc.) for eggs obtained in Example 5 and eggs obtained by using formula feeds listed in Table 5, which had been prepared by adding astaxanthin or t-capsanthin to a feed with a corn content of 40% so as to result in a final concentration of 2 ppm. FIGS. 9a to 9c show the measurement results of the L*, a*, and b* values, respectively.

[9] = cited from earlier work; remark: listed apart in the source
[10] = test system: chickens; experiment: Yolk carotenoid content and composition 3 (eggs of Example 8); assay type: in vivo; settings: 2 ppm or 4 ppm; corn contents of 0% to 30%; fed 2 to 4 weeks
Experimental: The yolk carotenoid concentration in eggs obtained in Example 8 was determined for five eggs for each test plot in the same manner as in Example 1.

[11] = desired CF value 10, low-corn-content feed
[12] = desired CF value 11, low-corn-content feed
[13] = desired CF value 12, low-corn-content feed
[14] = desired CF value 13, low-corn-content feed
[15] = desired CF value 14, low-corn-content feed
[16] = desired CF value 10, 30% Corn feed
[17] = desired CF value 10, 50% Corn feed
[18] = desired CF value 11, 30% Corn feed
[19] = desired CF value 11, 50% Corn feed
[20] = desired CF value 12, 30% Corn feed
[21] = desired CF value 12, 50% Corn feed
[22] = desired CF value 13, 30% Corn feed
[23] = desired CF value 13, 50% Corn feed
[24] = desired CF value 14, 30% Corn feed
[25] = desired CF value 14, 50% Corn feed
[26] = desired CF value 15, 30% Corn feed
[27] = desired CF value 15, 50% Corn feed

CC1=C(/C=C/C(C)=C/C=C/C(C)=C/C=C/C=C(C)/C=C/C=C(C)/C=C/C(=O)[C@]2(C)C[C@@H](O)CC2(C)C)C(C)(C)C[C@H](O)C1 (relative stereo) [t-Capsanthin, trans-capsanthin, reference compound]
change of color fan value, low-corn-content vs standard-corn-content feed [1]: did not increase
CF value ([1]; low-corn-content feed): 12.2
CF value ([1]; standard-corn-content feed): 12.7
Colorant concentration in feed necessary for achieving the desired CF value [1, 11]: 1.8 ppm
Colorant concentration in feed necessary for achieving the desired CF value [1, 12]: 2.4 ppm
Colorant concentration in feed necessary for achieving the desired CF value [1, 13]: 3.2 ppm
Colorant concentration in feed necessary for achieving the desired CF value [1, 14]: 4.3 ppm
Colorant concentration in feed necessary for achieving the desired CF value [1, 15]: 6.0 ppm
Colorant concentration in feed to achieve desired CF value [2, 16]: 2.1 ppm
Colorant concentration in feed to achieve desired CF value [2, 17]: 2.4 ppm
Colorant concentration in feed to achieve desired CF value [2, 18]: 2.8 ppm
Colorant concentration in feed to achieve desired CF value [2, 19]: 3.1 ppm
Colorant concentration in feed to achieve desired CF value [2, 20]: 3.6 ppm
Colorant concentration in feed to achieve desired CF value [2, 21]: 4.0 ppm
Colorant concentration in feed to achieve desired CF value [2, 22]: 4.7 ppm
Colorant concentration in feed to achieve desired CF value [2, 23]: 5.2 ppm
Colorant concentration in feed to achieve desired CF value [2, 24]: 6.4 ppm
Colorant concentration in feed to achieve desired CF value [2, 25]: 6.8 ppm
Colorant concentration in feed to achieve desired CF value [2, 26]: 9.8 ppm
Colorant concentration in feed to achieve desired CF value [2, 27]: 9.7 ppm
a* value (red color) of yolk in relation to corn content [3]: increased in proportional to the corn content

CC1=C(/C=C/C(C)=C/C=C/C(C)=C/C=C/C=C(C)/C=C/C=C(C)/C=C/C2=C(C)C(=O)[C@@H](O)CC2(C)C)C(C)(C)C[C@H](O)C1=O [Astaxanthin, astaxanthin]
yolk colorant concentration, low-corn-content vs standard-corn-content feed [4]: greater than that in eggs obtained from chickens fed with the standard-corn-content feed
amount of astaxanthin relative to t-capsanthin to achieve the desired color fan value ([1]; color fan value of 13, low-corn-content feed): approximately 51%
change of color fan value, low-corn-content vs standard-corn-content feed [1]: increased
CF value ([1]; standard-corn-content feed): 12.8
Astaxanthin/t-Capsanthin ratio [1, 11]: 0.56
Colorant concentration in feed necessary for achieving the desired CF value [1, 11]: 1.0 ppm
Astaxanthin/t-Capsanthin ratio [1, 12]: 0.54
Colorant concentration in feed necessary for achieving the desired CF value [1, 12]: 1.3 ppm
Astaxanthin/t-Capsanthin ratio [1, 13]: 0.53
Colorant concentration in feed necessary for achieving the desired CF value [1, 13]: 1.7 ppm
Astaxanthin/t-Capsanthin ratio [1, 14]: 0.51
Colorant concentration in feed necessary for achieving the desired CF value [1, 14]: 2.2 ppm
Astaxanthin/t-Capsanthin ratio [1, 15]: 0.53
Colorant concentration in feed necessary for achieving the desired CF value [1, 15]: 3.2 ppm
Colorant concentration in feed necessary for achieving the desired CF value ([1]; desired CF value 15, low-corn-content feed): 7.0 ppm
color fan value compared with t-capsanthin ([2]; coloring agent 1 to 8 ppm): greater than those obtained using t-capsanthin
color fan value compared with t-capsanthin ([2]; coloring agent 16 ppm): no significant difference
Astaxanthin/t-Capsanthin ratio [2, 16]: 62%
Colorant concentration in feed to achieve desired CF value [2, 16]: 1.3 ppm
Astaxanthin/t-Capsanthin ratio [2, 17]: 58%
Colorant concentration in feed to achieve desired CF value [2, 17]: 1.4 ppm
Astaxanthin/t-Capsanthin ratio [2, 18]: 61%
Colorant concentration in feed to achieve desired CF value [2, 18]: 1.7 ppm
Astaxanthin/t-Capsanthin ratio [2, 19]: 61%
Colorant concentration in feed to achieve desired CF value [2, 19]: 1.9 ppm
Astaxanthin/t-Capsanthin ratio [2, 20]: 61%
Colorant concentration in feed to achieve desired CF value [2, 20]: 2.2 ppm
Astaxanthin/t-Capsanthin ratio [2, 21]: 63%
Colorant concentration in feed to achieve desired CF value [2, 21]: 2.5 ppm
Astaxanthin/t-Capsanthin ratio [2, 22]: 64%
Colorant concentration in feed to achieve desired CF value [2, 22]: 3.0 ppm
Astaxanthin/t-Capsanthin ratio [2, 23]: 65%
Colorant concentration in feed to achieve desired CF value [2, 23]: 3.4 ppm
Astaxanthin/t-Capsanthin ratio [2, 24]: 63%
Colorant concentration in feed to achieve desired CF value [2, 24]: 4.0 ppm
Astaxanthin/t-Capsanthin ratio [2, 25]: 69%
Colorant concentration in feed to achieve desired CF value [2, 25]: 4.7 ppm
Astaxanthin/t-Capsanthin ratio [2, 26]: 64%
Colorant concentration in feed to achieve desired CF value [2, 26]: 6.3 ppm
Astaxanthin/t-Capsanthin ratio [2, 27]: 82%
Colorant concentration in feed to achieve desired CF value [2, 27]: 8.0 ppm
color fan value compared with t-capsanthin [5]: greater than that achieved by using t-capsanthin
amount of colorant accumulated in the yolk in relation to corn content [6]: tended to increase as the corn content decreased
singlet oxygen quenching activity, stronger compared with vitamin E [7]: about 500 fold
a* value (red color) of yolk compared with t-capsanthin [8]: greater than that obtained with the addition of t-capsanthin
lipid peroxidation inhibition activity, stronger compared with vitamin E [9]: about 1000 fold
concentration transferred to the yolk compared with t-capsanthin [10]: greater than that of t-capsanthin
a* value (red color) of yolk in relation to corn content [3]: did not cause the a* value to significantly vary

Source: patent publication US20180146698A1, “FORMULA FEED FOR POULTRY” (JXTG Nippon Oil & Energy Corporation, priority 2015, published 2018)
